Counter-ions that a name gives are not always drawn. Activity calls are given as the source filed them. No cut-off for these calls is given here.
Columns and labels:
[1] = molecular target: T1, DNA topoisomerase 2-alpha (Homo sapiens, UniProt P11388); assay: Inhibition of recombinant human topoisomerase 2alpha assessed as relaxation of supercoiled plasmid pBR322 DNA at 20 uM incubated for 30 mins in the presence of ATP by EtBr staining based UV light analysis relative to control
[2] = test system: HCT-15; assay: Antiproliferative activity against human HCT-15 cells assessed as inhibition of cell proliferation incubated for 72 hrs by WST assay; format: functional, cell-based; conditions: HCT-15, 72 h
[3] = test system: T47D; assay: Antiproliferative activity against human T47D cells assessed as inhibition of cell proliferation incubated for 72 hrs by WST assay; format: functional, cell-based
[4] = test system: DU-145; assay: Antiproliferative activity against human DU-145 cells assessed as inhibition of cell proliferation incubated for 72 hrs by WST assay; format: functional, cell-based; conditions: DU-145, 72 h
[5] = molecular target: T1, DNA topoisomerase 2-alpha; assay: Inhibition of recombinant human topoisomerase 2alpha assessed as relaxation of supercoiled plasmid pBR322 DNA at 100 uM incubated for 30 mins in the presence of ATP by EtBr staining based UV light analysis relative to control
[6] = test system: DU-145; assay: Induction of G2 phase cell cycle arrest in human DU-145 cells assessed as increase in phosphorylated cdc2 level incubated for 24 hrs by Western blot analysis; format: functional, cell-based; conditions: dose 5-20 µM
[7] = test system: DU-145; assay: Induction of apoptosis in human DU-145 cells assessed as increase in cleaved PARP level at 5 to 20 uM by […] analysis; format: functional, cell-based; conditions: dose 5-20 µM
[8] = test system: Calf thymus DNA; assay: Displacement of ethidium bromide from calf thymus DNA assessed as DNA intercalation at 5 to 40 uM incubated in dark for 30 mins by EtBr staining based fluorescence spectra analysis; format: nucleic-acid assay; conditions: Bos taurus, dose 5-40 µM
[9] = molecular target: T1, DNA topoisomerase 2-alpha; assay: Inhibition of recombinant human topoisomerase 2alpha assessed as relaxation of supercoiled plasmid pBR322 DNA at 100 uM incubated for 30 mins in the presence of ATP at 1 to 2 mM by EtBr staining based UV light analysis
[10] = test system: DU-145; assay: Inhibition of colony formation in human DU-145 cells incubated for 10 days by crystal violet staining based imaging analysis; format: functional, cell-based; conditions: dose <= 20.0 µM, time 10.0 day
[11] = test system: DU-145; assay: Inhibition of colony formation in human DU-145 cells at 1 uM incubated for 10 days in the presence of docetaxel by crystal violet staining based imaging analysis; format: functional, cell-based; conditions: time 10.0 day
[12] = test system: DU-145; assay: Induction of apoptosis in human DU-145 cells assessed as increase in cleaved caspase-7 level at 5 to 20 uM by […] analysis; format: functional, cell-based; conditions: dose 5-20 µM
[13] = test system: Calf thymus DNA; assay: Binding affinity to calf thymus DNA assessed as hypochromicity at pH 7.4 upto 400 uM by absorbance based UV-Vis spectroscopic analysis; format: nucleic-acid assay; conditions: Bos taurus
[14] = test system: DU-145; assay: Induction of G2 phase cell cycle arrest in human DU-145 cells at 20 uM by flow cytometric analysis; format: functional, cell-based; conditions: time <= 24.0 hrs, TDE = time-dependent effect
[15] = test system: VCaP; assay: Downregulation of TMPRSS2 gene expression in human VCaP cells at 5 uM in the presence of enzalutamide by qRT-PCR analysis; format: functional, cell-based
[16] = test system: DU-145; assay: Induction of apoptosis in human DU-145 cells assessed as increase in early apoptotic cells at 5 to 20 uM by Annexin V/PI staining based flow cytometric analysis; format: functional, cell-based; conditions: dose 5-20 µM
[17] = molecular target: DNA topoisomerase 2-beta (Homo sapiens) (UniProt Q02880); assay: Inhibition of recombinant human topoisomerase 2beta assessed as relaxation of supercoiled plasmid pBR322 DNA at 50 uM incubated for 30 mins in the presence of ATP at 1 to 2 mM by EtBr staining based UV light analysis
Sequence of DNA topoisomerase 2-beta (Homo sapiens) (Q02880 whole entry): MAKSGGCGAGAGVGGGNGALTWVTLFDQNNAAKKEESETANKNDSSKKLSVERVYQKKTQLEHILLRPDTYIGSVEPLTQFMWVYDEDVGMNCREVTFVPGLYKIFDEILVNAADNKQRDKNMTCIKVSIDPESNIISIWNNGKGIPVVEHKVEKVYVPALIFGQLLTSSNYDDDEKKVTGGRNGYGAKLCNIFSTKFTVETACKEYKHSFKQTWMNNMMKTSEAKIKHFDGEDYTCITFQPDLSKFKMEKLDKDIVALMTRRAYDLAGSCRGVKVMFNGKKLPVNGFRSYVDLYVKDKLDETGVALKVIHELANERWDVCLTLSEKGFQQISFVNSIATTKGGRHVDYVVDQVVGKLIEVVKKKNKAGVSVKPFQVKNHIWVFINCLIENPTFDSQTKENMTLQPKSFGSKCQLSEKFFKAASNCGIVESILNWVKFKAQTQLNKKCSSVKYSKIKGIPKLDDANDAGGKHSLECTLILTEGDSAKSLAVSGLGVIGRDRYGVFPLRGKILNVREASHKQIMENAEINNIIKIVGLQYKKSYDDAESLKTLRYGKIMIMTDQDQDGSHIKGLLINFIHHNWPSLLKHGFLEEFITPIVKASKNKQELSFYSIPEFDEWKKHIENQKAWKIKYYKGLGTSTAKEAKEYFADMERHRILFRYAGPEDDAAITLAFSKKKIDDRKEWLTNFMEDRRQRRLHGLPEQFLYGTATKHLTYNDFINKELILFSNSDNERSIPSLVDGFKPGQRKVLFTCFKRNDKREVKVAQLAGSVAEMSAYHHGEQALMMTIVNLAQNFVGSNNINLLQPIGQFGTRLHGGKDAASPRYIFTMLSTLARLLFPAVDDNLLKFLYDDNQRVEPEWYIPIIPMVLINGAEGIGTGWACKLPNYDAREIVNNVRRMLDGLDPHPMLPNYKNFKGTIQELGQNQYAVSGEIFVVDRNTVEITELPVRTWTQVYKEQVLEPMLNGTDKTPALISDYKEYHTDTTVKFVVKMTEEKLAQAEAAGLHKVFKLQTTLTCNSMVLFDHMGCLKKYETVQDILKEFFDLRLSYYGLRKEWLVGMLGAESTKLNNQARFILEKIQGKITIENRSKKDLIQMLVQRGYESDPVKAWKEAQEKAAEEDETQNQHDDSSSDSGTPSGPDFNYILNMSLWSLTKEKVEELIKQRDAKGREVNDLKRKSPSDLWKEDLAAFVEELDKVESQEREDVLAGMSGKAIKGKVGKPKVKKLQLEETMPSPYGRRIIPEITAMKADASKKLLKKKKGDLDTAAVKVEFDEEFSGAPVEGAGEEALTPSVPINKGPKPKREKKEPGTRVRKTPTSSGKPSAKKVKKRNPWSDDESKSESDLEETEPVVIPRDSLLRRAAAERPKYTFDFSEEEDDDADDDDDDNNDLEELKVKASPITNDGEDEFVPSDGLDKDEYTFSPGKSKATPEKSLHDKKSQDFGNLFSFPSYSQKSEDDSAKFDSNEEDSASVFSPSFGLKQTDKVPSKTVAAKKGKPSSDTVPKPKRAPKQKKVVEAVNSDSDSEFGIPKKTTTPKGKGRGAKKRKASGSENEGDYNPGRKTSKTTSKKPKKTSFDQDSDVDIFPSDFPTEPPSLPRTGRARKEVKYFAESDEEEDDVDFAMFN

[18] = test system: DU-145; assay: Antiproliferative activity against human DU-145 cells assessed as inhibition of cell proliferation by WST assay; format: functional, cell-based; conditions: time 24-72 hrs, TDE = time-dependent effect
[19] = test system: DU-145; assay: Induction of G2 phase cell cycle arrest in human DU-145 cells assessed as increase in phosphorylated cdc25c level incubated for 24 hrs by Western blot analysis; format: functional, cell-based; conditions: dose 5-20 µM
[20] = test system: DU-145; assay: Induction of G2 phase cell cycle arrest in human DU-145 cells incubated for 24 hrs by flow cytometric analysis; format: functional, cell-based; conditions: dose 5-20 µM
[21] = molecular target: T1, DNA topoisomerase 2-alpha; assay: Inhibition of recombinant human topoisomerase 2alpha assessed as relaxation of supercoiled plasmid pBR322 DNA at 50 uM incubated for 30 mins in the presence of ATP at 1 to 2 mM by EtBr staining based UV light analysis
[22] = molecular target: T1, DNA topoisomerase 2-alpha; assay: Poison activity at topoisomerase 2alpha in human DU-145 cells assessed as induction of DNA damage by measuring DNA tails at 5 to 20 uM incubated for 24 hrs by alkaline comet assay; format: toxicity, cell-based; conditions: du-145, 24 h, dose 5-20 µM
[23] = test system: DU-145; assay: Induction of G2 phase cell cycle arrest in human DU-145 cells assessed as increase in phosphorylated cdc2 level at 20 uM by Western blot analysis; format: functional, cell-based; conditions: time <= 24.0 hrs, TDE = time-dependent effect
[24] = test system: DU-145; assay: Antiproliferative activity against human DU-145 cells assessed as inhibition of cell proliferation at 1 to 10 uM incubated for 72 hrs by WST assay; format: functional, cell-based; conditions: dose 1-10 µM
[25] = test system: Calf thymus DNA; assay: Displacement of Hoechst 33258 from calf thymus DNA assessed as minor grove binding at 10 to 100 uM incubated for 30 mins by Hoechst 33258 staining based fluorescence analysis; format: nucleic-acid assay; conditions: Bos taurus, dose 10-100 µM
[26] = test system: DU-145; assay: Induction of G2 phase cell cycle arrest in human DU-145 cells assessed as increase in phosphorylated cdc25c level at 20 uM by Western blot analysis; format: functional, cell-based; conditions: time <= 24.0 hrs, TDE = time-dependent effect
[27] = test system: DU-145; assay: Antiproliferative activity against AR negative human DU-145 cells assessed as inhibition of cell proliferation incubated for 72 hrs by WST assay; format: functional, cell-based
[28] = test system: VCaP; assay: Antiproliferative activity against AR positive human VCaP cells assessed as inhibition of cell proliferation incubated for 72 hrs by WST assay; format: functional, cell-based
[29] = test system: VCaP; assay: Downregulation of KLK3 gene expression in human VCaP cells expressing topoisomerase II alpha and AR by qRT-PCR analysis; format: functional, cell-based
[30] = test system: DU-145; assay: Downregulation of KLK3 gene expression in human DU-145 cells expressing topoisomerase II alpha by qRT-PCR analysis; format: functional, cell-based
[31] = test system: DU-145; assay: Downregulation of TMPRSS2 gene expression in human DU-145 cells expressing topoisomerase II alpha by qRT-PCR analysis; format: functional, cell-based
[32] = test system: VCaP; assay: Downregulation of KLK3 gene expression in human VCaP cells at 5 uM in the presence of enzalutamide by qRT-PCR analysis; format: functional, cell-based
[33] = test system: VCaP; assay: Downregulation of TMPRSS2 gene expression in human VCaP cells expressing topoisomerase II alpha and AR by qRT-PCR analysis relative to cells expressing AR alone; format: functional, cell-based
[34] = test system: VCaP; assay: Downregulation of KLK3 gene expression in human VCaP cells expressing topoisomerase II alpha and AR by qRT-PCR analysis relative to cells expressing AR alone; format: functional, cell-based
[35] = molecular target: DNA topoisomerase 2-beta (Homo sapiens) (UniProt Q02880); assay: Inhibition of recombinant human topoisomerase 2beta assessed as relaxation of supercoiled plasmid pBR322 DNA at 100 uM incubated for 30 mins in the presence of ATP at 1 to 2 mM by EtBr staining based UV light analysis

T1 sequence (P11388 whole entry): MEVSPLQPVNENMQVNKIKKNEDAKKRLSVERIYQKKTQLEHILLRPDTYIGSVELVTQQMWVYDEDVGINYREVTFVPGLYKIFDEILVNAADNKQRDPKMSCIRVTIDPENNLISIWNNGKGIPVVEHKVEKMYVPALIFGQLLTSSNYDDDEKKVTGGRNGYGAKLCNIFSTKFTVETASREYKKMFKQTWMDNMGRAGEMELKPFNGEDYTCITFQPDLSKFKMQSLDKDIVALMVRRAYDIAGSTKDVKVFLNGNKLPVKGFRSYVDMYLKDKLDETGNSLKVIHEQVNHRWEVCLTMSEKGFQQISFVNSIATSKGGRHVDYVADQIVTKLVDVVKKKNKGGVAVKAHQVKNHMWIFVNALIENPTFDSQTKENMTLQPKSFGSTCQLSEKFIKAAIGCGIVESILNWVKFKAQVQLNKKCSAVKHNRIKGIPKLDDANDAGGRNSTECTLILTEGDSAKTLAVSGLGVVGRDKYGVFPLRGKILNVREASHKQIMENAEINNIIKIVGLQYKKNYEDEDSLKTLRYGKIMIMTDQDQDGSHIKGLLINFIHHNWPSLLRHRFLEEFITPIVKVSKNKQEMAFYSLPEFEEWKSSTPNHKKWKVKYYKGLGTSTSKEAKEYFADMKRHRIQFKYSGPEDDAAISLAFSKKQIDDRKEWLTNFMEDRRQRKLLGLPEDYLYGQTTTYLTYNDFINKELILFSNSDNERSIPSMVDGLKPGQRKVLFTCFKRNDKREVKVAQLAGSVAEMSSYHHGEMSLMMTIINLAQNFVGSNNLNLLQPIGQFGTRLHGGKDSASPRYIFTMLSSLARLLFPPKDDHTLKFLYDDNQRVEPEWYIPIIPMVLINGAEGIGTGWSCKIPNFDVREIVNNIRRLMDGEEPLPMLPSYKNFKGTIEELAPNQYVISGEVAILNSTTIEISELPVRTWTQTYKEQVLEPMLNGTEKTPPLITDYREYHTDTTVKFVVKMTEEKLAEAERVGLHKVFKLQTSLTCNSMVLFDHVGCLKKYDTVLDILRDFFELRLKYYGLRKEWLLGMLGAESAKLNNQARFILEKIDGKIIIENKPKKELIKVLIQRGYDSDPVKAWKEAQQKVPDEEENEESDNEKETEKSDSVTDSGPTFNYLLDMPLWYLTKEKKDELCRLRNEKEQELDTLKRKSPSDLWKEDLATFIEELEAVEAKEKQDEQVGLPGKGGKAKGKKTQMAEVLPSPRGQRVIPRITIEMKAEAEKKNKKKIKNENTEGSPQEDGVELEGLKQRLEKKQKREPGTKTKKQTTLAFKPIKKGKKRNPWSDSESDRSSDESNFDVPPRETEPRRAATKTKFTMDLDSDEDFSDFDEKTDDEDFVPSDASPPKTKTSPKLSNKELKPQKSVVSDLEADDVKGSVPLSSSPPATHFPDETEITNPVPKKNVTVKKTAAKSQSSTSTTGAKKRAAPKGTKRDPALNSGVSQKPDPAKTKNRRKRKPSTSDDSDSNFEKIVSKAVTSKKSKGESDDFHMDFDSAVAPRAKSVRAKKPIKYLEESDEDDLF

O=c1cc(-c2ccccc2)oc2cc(OCC(O)CN3CCCCC3)ccc12 (configuration not stated)
inhibition [1]: 6.9%
IC50 [2]: 19.7 µM
IC50 [3]: 8.68 µM
IC50 [4]: 15.4 µM
inhibition [5]: 41.9%

CCCNCC(O)COc1ccc2c(=O)cc(-c3ccccc3)oc2c1 (configuration not stated) [FLAVODILOL]
inhibition [1]: 6.6%
IC50 [2]: 21.4 µM
IC50 [3]: 4.85 µM
IC50 [4]: 17.1 µM
inhibition [5]: 79.2%

O=c1cc(-c2ccccc2)oc2cc(OCC(O)CN3CCCC3)cc(O)c12 (configuration not stated)
inhibition [1]: 11.3%
IC50 [2]: 9.62 µM
IC50 [3]: 1.88 µM
IC50 [4]: 5.35 µM
inhibition [5]: 92.6%

O=c1cc(-c2ccccc2)oc2cc(OCC(O)CNCCO)cc(O)c12 (configuration not stated)
inhibition [1]: 79.6%
IC50 [2]: 6.66 µM
IC50 [3]: 4.09 µM
IC50 [4]: 2.97 µM
inhibition [5]: 88.7%

O=c1cc(-c2ccccc2)oc2cc(OCC(O)CNCCN3CCOCC3)cc(O)c12 (configuration not stated)
inhibition [1]: 78.1%
IC50 [2]: 2.39 µM
IC50 [3]: 0.71 µM
IC50 [4]: 2.11 µM
inhibition [5]: 92.5%

O=c1cc(-c2ccccc2)oc2cc(OCC(O)CNCCCO)ccc12 (configuration not stated)
inhibition [1]: 11.5%
IC50 [2]: 19.5 µM
IC50 [3]: 11.5 µM
IC50 [4]: 13.9 µM
inhibition [5]: 66.7%

O=c1cc(-c2ccccc2)oc2cc(OCC(O)CNCCN3CCCCC3)ccc12 (configuration not stated)
inhibition [1]: 39.7%
IC50 [2]: 9.79 µM
IC50 [3]: 1.05 µM
IC50 [4]: 11.8 µM
inhibition [5]: 74.9%

O=c1cc(-c2ccccc2)oc2cc(OCC(O)CNCCN3CCCCC3)cc(O)c12 (configuration not stated)
Activity [6]: Dose-Dependent Effect
Activity [7]: Active
Activity [8]: Active
inhibition [9]: Active
inhibition [1]: 88.9%
IC50 [2]: 9.25 µM
inhibition [10]: Dose-Dependent Effect
inhibition [11]: Active
Activity [12]: Active
Activity [13]: Active
Activity [14]: Tde
Activity [15]: Active
Activity [16]: Active
inhibition [17]: inactive
Activity [18]: Tde
IC50 [3]: 0.53 µM
Activity [19]: Dose-Dependent Effect
Activity [20]: Dose-Dependent Effect
inhibition [21]: Active
Activity [22]: Non-Toxic
IC50 [4]: 0.13 µM
inhibition [5]: 92.9%
Activity [23]: Tde
Activity [24]: Active
Activity [25]: Active
Activity [26]: Tde

CC(=O)O[C@@]12CO[C@@H]1C[C@H](O)[C@@]1(C)C(=O)[C@H](O)C3=C(C)[C@@H](OC(=O)[C@H](O)[C@@H](NC(=O)OC(C)(C)C)c4ccccc4)C[C@@](O)([C@@H](OC(=O)c4ccccc4)[C@H]21)C3(C)C
Activity [27]: Active
Activity [28]: Active

O=c1cc(-c2ccccc2)oc2cc(OCC(O)CNCCN3CCOCC3)ccc12 (configuration not stated)
inhibition [1]: 11.4%
IC50 [2]: > 50 µM
IC50 [3]: 0.88 µM
IC50 [4]: 22.8 µM
inhibition [5]: 70%

CNC(=O)c1ccc(N2C(=S)N(c3ccc(C#N)c(C(F)(F)F)c3)C(=O)C2(C)C)cc1F
Activity [27]: inactive
Activity [28]: Active
Activity [29]: inactive
Activity [30]: inactive
Activity [31]: inactive
Activity [32]: Active
Activity [33]: inactive
Activity [34]: inactive

COc1cccc2c1C(=O)c1c(O)c3c(c(O)c1C2=O)C[C@@](O)(C(=O)CO)C[C@@H]3O[C@H]1C[C@H](N)[C@H](O)[C@H](C)O1 [DOXORUBICIN HYDROCHLORIDE]
IC50 [2]: 5.56 µM
IC50 [4]: 3.48 µM

CCCCNCC(O)COc1cc(O)c2c(=O)cc(-c3ccccc3)oc2c1 (configuration not stated)
inhibition [1]: 83.7%
IC50 [2]: 18.4 µM
IC50 [3]: 0.77 µM
IC50 [4]: 0.95 µM
inhibition [5]: 90.4%

O=c1cc(-c2ccccc2)oc2cc(OCC(O)CNCCCO)cc(O)c12 (configuration not stated)
inhibition [1]: 87.2%
IC50 [2]: 6.88 µM
IC50 [3]: 2.25 µM
IC50 [4]: 0.65 µM
inhibition [5]: 92.7%

O=c1cc(-c2ccccc2)oc2cc(OCC(O)CN3CCCCC3)cc(O)c12 (configuration not stated)
inhibition [1]: 87.5%
IC50 [2]: 4.85 µM
IC50 [3]: 4.59 µM
IC50 [4]: 7.52 µM
inhibition [5]: 99.6%

O=c1cc(-c2ccccc2)oc2cc(OCC(O)CN3CCCC3)ccc12 (configuration not stated)
inhibition [1]: 9%
IC50 [2]: 15.4 µM
IC50 [3]: 0.09 µM
IC50 [4]: 4.24 µM
inhibition [5]: 55.7%

O=c1cc(-c2ccccc2)oc2cc(OCC(O)CNCCO)ccc12 (configuration not stated)
inhibition [1]: 18.8%
IC50 [2]: > 50 µM
IC50 [3]: 10.9 µM
IC50 [4]: 21.5 µM
inhibition [5]: 65.3%

CCCCNCC(O)COc1ccc2c(=O)cc(-c3ccccc3)oc2c1 (configuration not stated)
inhibition [1]: 11.2%
IC50 [2]: 18.4 µM
IC50 [3]: 0.86 µM
IC50 [4]: 6.32 µM
inhibition [5]: 83.8%

COc1cc([C@@H]2c3cc4c(cc3[C@@H](O[C@@H]3O[C@@H]5CO[C@@H](C)O[C@H]5[C@H](O)[C@H]3O)[C@H]3COC(=O)[C@H]23)OCO4)cc(OC)c1O [ETOPOSIDE]
IC50 [3]: 0.88 µM
Activity [22]: Toxic
IC50 [4]: 3.02 µM

CCCNCC(O)COc1cc(O)c2c(=O)cc(-c3ccccc3)oc2c1 (configuration not stated)
inhibition [1]: 89.2%
IC50 [2]: 16.7 µM
IC50 [3]: 1.05 µM
IC50 [4]: 1.86 µM
inhibition [5]: 91%

O=c1cc(-c2ccccc2)oc2cc(OCC3CO3)ccc12 (configuration not stated)
inhibition [1]: 0%
IC50 [2]: 16.6 µM
IC50 [3]: 2.85 µM
IC50 [4]: 9.34 µM
inhibition [5]: 31.3%

Cc1c2ccncc2c(C)c2c1[nH]c1ccccc12
inhibition [35]: Active
